Measured values from US10426388B2, “Prediction of tumor recurrence by measuring oxygen saturation” (THE GENERAL HOSPITAL CORPORATION, priority 2014, dated 2019).
Where “and” joins values, the source holds several entries; their conditions need not be identical. Identical values can stand only once. Entries after “also recorded” stand apart in the source; their conditions may differ.

Tests used:
tumor = assay: Tumor hypoxia/oxygenation after irinotecan detected by photoacoustic imaging; assay type: in vivo
subcutaneous U87 tumors [1] = assay: Photoacoustic imaging of tumor StO2 and HbT before and after BPD-PDT; assay type: in vivo, mice
Method: StO2 and HbT content were measured in both the 1-hr DLI responding group and 3-hr DLI (nonresponders) group of mice (n=6 per group) at 4 time points (before PDT (Pre-PDT), immediately post-PDT, 6-hrs and 24-hrs post-PDT) to determine if PAI could predict treatment response. FIG. 7A and FIG. 7B show representative images of the change in StO2 and HbT content at various time points in a responding and non-responding tumor respectively. Ultrasound imaging identified region of interest (green ROI in FIGS. 7A and 7B is the tumor region). FIG. 7C and FIG. 7D represent the average of StO2 values and HbT values in the tumor ROI from ˜350 B-scans per mouse (6 mice in each group, ˜55-75 B-scans per 3D tumor volume). […] This phenomena is in agreement with the studies by Wang et al. and is attributed to cell death and a decrease in the metabolic consumption of oxygen in the tumor area. Wang et al., Cancer Research, 64(20):7553-61 (2004).
(§1) Animal Model: All animal experiments were approved by the Subcommittee on Research Animal Care of Massachusetts General Hospital. Female athymic Swiss nude mice (Cox, Cambridge, Mass.), 8-10 weeks old, were anesthetized with isoflurane USP (Baxter, Deerfield, Ill.) and inoculated subcutaneously with 3×10^6 U87 cells in 300 μL, of Matrigel (BD Bioscience, San Jose, Calif.). Tumor volumes were measured using calipers by two researchers separately. Tumor volume was calculated using the formula; π/6×Length×Width×Height and photographs of the tumors were obtained.
(§2) PDT Treatment: Mice were injected intravenously with 0.5 mg/kg of BPD-MA, then PDT was performed as follows. Mice were placed under the laser light source and covered with black cloth except tumor area. 1 or 3-hrs post injection, mice were irradiated with 100 J/cm^2 using a 690 nm laser diode source (Model 7401; Intense, North Brunswick, N.J.) at a fluence rate of 100 mW/cm^2 as measured via a VEGA laser power energy meter (Ophir Laser Measurement Group, LLC).
Ultrasound and Photoacoustic Imaging: Image acquisition and quantitation was performed using the ultrasound and photoacoustic imaging system (Vevo LAZR, FUJIFILM VisualSonics, Inc.). Light generated from a tunable laser operating at either 750 nm or 850 nm was delivered through fiber optic bundles integrated into a linear array transducer (LZ-250, 21 MHz). The Oxy-Hemo feature of the Vevo LAZR software was used to acquire the oxygen-saturation images. Mice were imaged under isoflurane. Physiological status (ECG, respiration, and body temperature) of the mice was closely monitored during image acquisition sessions. 3D ultrasound and photoacoustic images were acquired at a step size of 0.152 mm. The Vevo LAZR workstation software was utilized to mark the tumor region of interest and obtain the StO2 and HbT values for every B-scan. The workstation allowed export of the raw data. The raw data is processed using customized MATLAB routines and integrated with 3D visualization software AMIRA to obtain the prediction maps.

subcutaneous U87 tumors [2] = assay: Validation of tumor hypoxia with pimonidazole/CD31 immunofluorescence after BPD-PDT; assay type: in vivo, mice; settings: 1-hr DLI (responding group) compared with 3-hr DLI (non-responding) group
From the text: The inventors next validated the hypoxic conditions observed in photoacoustic images with pimonidazole stain for hypoxia. Gerling et al., Theranostics, 4(6):604-13 (2014). Tumors were sectioned in a similar orientation as the imaging cross-section. CD31 stain was utilized to depict the tumor vasculature while pimonidazole stained the hypoxic regions. In the 1-hr DLI group (FIGS. 8A-4D), Immunofluorescence (IF) images show hypoxia adjacent to the vasculature depicted by the CD31 stain. The hypoxia is due to the vascular damage caused by PDT and disruption of the blood flow in these vessels. Zoomed images of the H&E stain of the adjacent cross section show vascular congestions. […] It is also to be noted that the fluorescence of the pimonidazole stain is stronger in the 1-hr DLI (responding group) tumor than in the 3-hr DLI (non-responding) group given the severe hypoxic conditions created by PDT.
Immunohistochemistry: An overview of the immunofluorescence staining protocol used in this study is published previously by the inventors. […] The slides were washed in PBS and secondary antibody (Donkey Anti-Goat IgG NL493 Affinity Purified PAb (R&D systems Inc) was applied for 2-hrs at room temperature. Finally the slides were washed and sealed with coverslip. A whole slide scanning fluorescence imaging system (Hamamatsu NanoZoomer 2.0-RS) at 40× magnification was used to image the slides.

[3] = Photobleaching of BPD in phantom tubes by photoacoustic imaging (fluorescence before/after PAI); assay type: physicochemical; settings: fluorescence at 690 nm
Method: The FDA approved photosensitizer Benzoporphryin derivative (BPD-MA) (Aveline et al., Photochemistry and Photobiology, 59(3):328-35 (1994)) with absorption peaks at […] was used for all PDT experiments. To achieve better depth of light penetration, 690 nm light was used for PDT. PAI was performed at 750 nm and 850 nm wavelength illumination to deduce StO2 from the oxygenated and deoxygenated hemoglobin signal as described by Needles et al. Needles et al., IEEE Trans Ultrason Ferroelectr Freq Control. 60(5):888-97 (2013). At these wavelengths, the absorbance of BPD is minimal (FIG. 5A). PAI was performed using pulsed nanosecond laser (10 nsec pulse width) illumination. […] Fluorescence imaging on the tubes were performed using a Maestro imaging system (CRI Inc.) with an excitation at 405 nm and emission at 690 nm.
Fluorescence imaging: Fluorescence images of two phantom tube (500 um inner diameter) containing phosphate buffered saline (PBS) and liposomal BPD were acquired using a CRi Maestro system. […] Fluorescence images at 690 nm were acquired. A custom Matlab routine was used to quantify fluorescence signals in the tubes. […] Fluorescence image of the tubes were acquired and the tubes were again irradiated with laser of the Vevo LAZR system operating at 690 nm (10 ns pulse width at 10 Hz, 44.5 mJ/cm^2 fluence). […]

subcutaneous U87 tumors [4] = assay: Longitudinal volume monitoring of subcutaneous U87 tumors after BPD-PDT; assay type: in vivo, mice
From the text: Chen et al., Int J Radiat Oncol Biol Phys., 61(4):1216-26 (2005); Chen et al., Crit Rev Eukaryot Gene Expr., 16(4):279-305 (2006). It was postulated in previous work that at 1-hr the PS localizes to both cellular and vascular compartments of the tumor while at 3-hrs, most of the PS is extra vascular and primarily cellular therefore less likely to impact the tumor oxygenation status. Iinuma et al., Cancer Research, 59(24):6164-70 (1999). […] Amongst the mice that underwent PDT with 1-hr DLI, there was no regrowth for ˜two weeks and at that point 35% of the mice started to show recurrence and an increase in tumor volume (FIG. 6, dashed line), while 65% mice had no palpable tumor 30 days post therapy (FIG. 6, solid line). To test if PAI could monitor the changes in StO2 in the tumor due to PDT, The inventors designated the 1-hr DLI group with a sustained absence of palpable tumors up to 30 days post treatment (FIG. 6, triangles joined by solid line) as the “PDT responding group” and the mice in the 3-hr DLI group (FIG. 6, squares joined by solid line) were considered the “PDT non-responding group”.
as §1, §2

[5] = responding 1-hr DLI group, 6-hrs post-PDT
[6] = responding 1-hr DLI group, 24-hrs post-PDT

**Q.** For `CCc1c2c(nc3ccc(OC(=O)N4CCC(N5CCCCC5)CC4)cc13)-c1cc3c(c(=O)n1C2)COC(=O)[C@]3(O)CC` [irinotecan], which tumor oxygenation (tumor; after irinotecan treatment, photoacoustic imaging) is on record?
**A.** increases tumor oxygenation

**Q.** And the levels of hypoxia (tumor; from 1 to 24 hours after treatment)?
**A.** steadily increasingly decrease

**Q.** What does the source list for “benzoporphyrin derivative monoacid ring-A [BPD]”?
**A.** HbT value versus pre-PDT value (subcutaneous U87 tumors [1]; 1-hr DLI group, 6-hrs post-PDT): significantly higher; StO2 immediately post-PDT versus pre-PDT (subcutaneous U87 tumors [1]; 1-hr DLI group, p<0.001): increase in oxygenation; HbT signal at 6-hrs and 24-hrs post-PDT (subcutaneous U87 tumors [1]; 3-hr DLI group): no statistical difference; StO2 24-hrs post-PDT versus pre-PDT (subcutaneous U87 tumors [1]; 3-hr DLI group): No statistically significant difference; StO2 immediately post-PDT versus pre-PDT (subcutaneous U87 tumors [1]; 3-hr DLI group): no statistically significant difference; change in StO2 compared to pre-PDT StO2 value (subcutaneous U87 tumors [1]; 3-hr DLI group, 6-hrs post-PDT): ~18%; StO2 (subcutaneous U87 tumors [1]; non-responding 3-hr DLI group, 6-hrs post-PDT): 47.6%±13.4%; StO2 (subcutaneous U87 tumors [1]; non-responding 3-hr DLI group, 24-hrs post-PDT): 55.3%±11.6%; StO2 (subcutaneous U87 tumors [1]; [5]): 2.97±1.6% and 2.9%±1.6%; decrease in StO2 relative to Pre-PDT value (subcutaneous U87 tumors [1]; [5]): ~95% and ~94.3%; StO2 (subcutaneous U87 tumors [1]; [6]): 8.03%±4.13%; decrease in StO2 relative to pre-PDT value (subcutaneous U87 tumors [1]; [6]): ~85% and ~84.8%; fluorescence of the pimonidazole stain (hypoxia), 1-hr DLI tumor versus 3-hr DLI tumor (subcutaneous U87 tumors [2]): stronger; BPD fluorescence after PAI (photobleaching) ([3]; PAI at 690 nm): significant decrease in the fluorescence; also recorded: reduced fluorescence; BPD fluorescence signal after PAI compared to pre-imaging value ([3]; PAI at 750 nm followed by 850 nm pulsed laser irradiation): no significant difference; also recorded: no significant change; mice showing recurrence (local tumor recurrence) (subcutaneous U87 tumors [4]; 1-hr DLI PDT): ~35%; time without regrowth (subcutaneous U87 tumors [4]; 1-hr DLI PDT): two weeks; mice with no palpable tumor (subcutaneous U87 tumors [4]; 1-hr DLI PDT, 30 days post therapy): 65%; increase in tumor volume (subcutaneous U87 tumors [4]; 3-hr DLI group, three weeks following PDT, 0.5 mg/kg BPD, 100 J/cm^2): approximately six-fold; tumor volume difference versus no-treatment group (subcutaneous U87 tumors [4]; 3-hr DLI group, p>0.05, Students t-test): no significant difference
